The source of these data is patent US20240109865A1, “INDAZOLE COMPOUNDS AS KINASE INHIBITORS” (TYRA BIOSCIENCES, INC., priority 2020, published 2024).

Experiment in all cases: Kinase assay, binding constants (Kd), kinase-tagged T7 phage, qPCR
A general note: In qPCR the cycle at which signal appears reflects the starting amount.

For assay [1], the target named is FGFR1 (Homo sapiens (Human), UniProt P11362). A digest of the protocol: (§1)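 Competition binding: T7 phage-tagged kinase + biotin-ligand beads + compound (11 pts, 3-fold, 0.9% DMSO). Elution 30 min RT with free ligand; qPCR quantitation. Kd via Hill fit, slope −1.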
FGFR1, sequence (P11362 22-822): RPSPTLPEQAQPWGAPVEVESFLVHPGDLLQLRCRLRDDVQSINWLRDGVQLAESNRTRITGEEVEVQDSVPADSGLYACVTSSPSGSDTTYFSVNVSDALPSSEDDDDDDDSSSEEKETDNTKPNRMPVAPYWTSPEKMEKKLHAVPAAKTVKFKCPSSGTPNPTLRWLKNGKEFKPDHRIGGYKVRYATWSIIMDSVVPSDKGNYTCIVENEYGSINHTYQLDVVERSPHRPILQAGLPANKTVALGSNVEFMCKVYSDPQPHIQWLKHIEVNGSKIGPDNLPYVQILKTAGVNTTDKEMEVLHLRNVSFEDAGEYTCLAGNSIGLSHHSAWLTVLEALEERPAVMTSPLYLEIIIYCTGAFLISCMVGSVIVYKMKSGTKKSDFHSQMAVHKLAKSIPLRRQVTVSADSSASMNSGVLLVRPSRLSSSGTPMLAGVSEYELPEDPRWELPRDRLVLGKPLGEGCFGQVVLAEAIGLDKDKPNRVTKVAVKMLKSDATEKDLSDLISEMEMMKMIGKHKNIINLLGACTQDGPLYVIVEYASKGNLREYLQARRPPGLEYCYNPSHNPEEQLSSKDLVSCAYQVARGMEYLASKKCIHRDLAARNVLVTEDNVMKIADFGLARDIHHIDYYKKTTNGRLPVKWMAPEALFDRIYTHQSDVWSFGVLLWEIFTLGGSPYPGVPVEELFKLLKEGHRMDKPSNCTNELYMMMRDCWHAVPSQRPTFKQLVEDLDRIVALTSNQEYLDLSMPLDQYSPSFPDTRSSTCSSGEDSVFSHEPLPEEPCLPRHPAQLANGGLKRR
Assay [2] deals with FGFR2 (Homo sapiens (Human), UniProt P21802). In a few lines: as §1
FGFR2, sequence (P21802 22-821): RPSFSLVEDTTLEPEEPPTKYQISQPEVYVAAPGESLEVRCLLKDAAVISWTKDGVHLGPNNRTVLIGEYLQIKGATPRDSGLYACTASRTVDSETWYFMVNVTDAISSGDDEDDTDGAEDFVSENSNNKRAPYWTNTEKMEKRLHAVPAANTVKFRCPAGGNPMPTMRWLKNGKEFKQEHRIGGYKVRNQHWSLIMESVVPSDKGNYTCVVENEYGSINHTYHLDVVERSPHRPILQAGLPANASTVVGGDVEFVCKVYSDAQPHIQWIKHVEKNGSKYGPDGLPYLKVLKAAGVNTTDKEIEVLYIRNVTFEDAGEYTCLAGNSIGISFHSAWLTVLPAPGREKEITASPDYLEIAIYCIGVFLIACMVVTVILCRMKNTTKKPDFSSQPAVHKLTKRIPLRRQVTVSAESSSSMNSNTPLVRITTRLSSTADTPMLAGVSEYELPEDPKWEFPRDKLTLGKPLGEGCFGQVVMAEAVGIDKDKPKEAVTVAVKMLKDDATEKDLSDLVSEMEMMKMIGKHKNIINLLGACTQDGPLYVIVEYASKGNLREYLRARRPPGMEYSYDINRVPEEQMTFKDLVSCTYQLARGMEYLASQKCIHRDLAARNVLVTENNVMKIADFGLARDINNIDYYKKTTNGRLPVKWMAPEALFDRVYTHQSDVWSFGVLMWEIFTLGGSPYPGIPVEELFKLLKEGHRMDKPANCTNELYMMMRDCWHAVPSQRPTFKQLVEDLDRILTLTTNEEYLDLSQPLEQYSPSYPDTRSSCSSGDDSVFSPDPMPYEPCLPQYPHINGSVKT
Assay [3] concerns the target FGFR3 (Homo sapiens (Human), UniProt P22607). In a few lines: as §1
Assay [4] deals with FGFR3 (V555M) (Homo sapiens (Human), UniProt P22607, V555M). To be noted: V555M mutant. A digest of the protocol: as §1
FGFR3 (V555M), sequence (P22607 23-806 V555M): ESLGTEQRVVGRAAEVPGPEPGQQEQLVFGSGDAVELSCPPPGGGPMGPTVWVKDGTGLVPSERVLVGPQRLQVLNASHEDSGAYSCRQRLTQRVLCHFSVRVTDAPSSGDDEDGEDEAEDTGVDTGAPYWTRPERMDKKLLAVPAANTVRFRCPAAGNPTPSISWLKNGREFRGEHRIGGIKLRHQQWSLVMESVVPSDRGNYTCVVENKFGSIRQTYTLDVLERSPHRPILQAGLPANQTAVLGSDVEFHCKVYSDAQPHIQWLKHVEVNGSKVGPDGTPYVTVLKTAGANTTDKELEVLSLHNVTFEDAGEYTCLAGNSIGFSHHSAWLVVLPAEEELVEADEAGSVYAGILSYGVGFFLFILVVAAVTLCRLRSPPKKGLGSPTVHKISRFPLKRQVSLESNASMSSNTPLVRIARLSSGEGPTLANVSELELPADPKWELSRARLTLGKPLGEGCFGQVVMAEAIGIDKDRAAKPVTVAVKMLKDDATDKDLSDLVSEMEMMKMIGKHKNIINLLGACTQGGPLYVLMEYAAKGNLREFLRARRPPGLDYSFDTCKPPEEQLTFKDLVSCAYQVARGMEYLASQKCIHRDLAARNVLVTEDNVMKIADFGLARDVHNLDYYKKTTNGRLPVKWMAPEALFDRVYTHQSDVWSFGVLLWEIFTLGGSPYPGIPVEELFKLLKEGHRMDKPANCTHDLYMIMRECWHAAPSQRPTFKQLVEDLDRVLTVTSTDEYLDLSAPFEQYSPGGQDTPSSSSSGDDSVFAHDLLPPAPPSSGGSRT
Assay [5] concerns the target FGFR4 (Homo sapiens (Human), UniProt P22455). In a few lines:
as §1

Structures are written as SMILES.

Usually Kd stands for a measure of binding affinity in units of concentration. A high value points to a looser complex.

FGFR4, sequence (P22455 22-802): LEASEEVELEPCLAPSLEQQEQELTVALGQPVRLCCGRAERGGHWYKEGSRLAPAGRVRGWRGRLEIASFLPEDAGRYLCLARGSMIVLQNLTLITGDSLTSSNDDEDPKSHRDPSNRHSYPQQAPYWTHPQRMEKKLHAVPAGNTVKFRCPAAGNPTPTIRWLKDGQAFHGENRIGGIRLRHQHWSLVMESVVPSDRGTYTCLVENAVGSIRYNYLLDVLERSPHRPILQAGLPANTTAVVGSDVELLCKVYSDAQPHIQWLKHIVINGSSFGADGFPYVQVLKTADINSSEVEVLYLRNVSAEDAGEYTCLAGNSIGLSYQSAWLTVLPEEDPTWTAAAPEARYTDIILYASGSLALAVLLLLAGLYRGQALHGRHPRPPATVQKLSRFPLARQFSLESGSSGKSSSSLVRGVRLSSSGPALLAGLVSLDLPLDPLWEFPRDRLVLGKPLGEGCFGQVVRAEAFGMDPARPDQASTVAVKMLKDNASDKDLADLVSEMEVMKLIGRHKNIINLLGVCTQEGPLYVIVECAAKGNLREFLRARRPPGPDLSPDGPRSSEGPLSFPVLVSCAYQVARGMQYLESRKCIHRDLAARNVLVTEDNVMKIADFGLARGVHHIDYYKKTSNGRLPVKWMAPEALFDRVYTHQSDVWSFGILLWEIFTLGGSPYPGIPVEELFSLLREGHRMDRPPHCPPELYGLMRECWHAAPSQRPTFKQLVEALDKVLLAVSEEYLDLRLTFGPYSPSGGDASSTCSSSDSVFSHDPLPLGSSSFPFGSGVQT
FGFR3, sequence (P22607 23-806): as the sequence (P22607 23-806 V555M) above, with M533V counted along it

For `C[C@@H](Oc1ccc2[nH]nc(-c3ccc(N4CC5(CCOC5)C4)nc3)c2c1)c1c(Cl)cnc(F)c1Cl` [Example 204, (R)-2-(5-(5-(1-(3,5-dichloro-2-fluoropyridin-4-yl)ethoxy)-1H-indazol-3-yl)pyridin-2-yl)-6-oxa-2-azaspiro[3.4]octane], the Kd was in the range of 20 to 100 nM in assay [1]; 1 to 20 nM in assay [2]; 1 to 20 nM in assay [3]; 1 to 20 nM in assay [4]; 20 to 100 nM in assay [5].

Turning to `Cc1cnnc(C)c1[C@@H](C)Oc1ccc2[nH]nc(-c3ccc(N4CC5(COC5)C4)nc3)c2c1` [Example 205, 6-[5-[5-[(1R)-1-(3,5-dimethylpyridazin-4-yl)ethoxy]-1H-indazol-3-yl]-2-pyridyl]-2-oxa-6-azaspiro[3.3]heptane], the Kd in assay [1], in assay [2], in assay [3], in assay [4] and in assay [5] was 1 to 20 nM each time.

Turning to `Cc1cnnc(C)c1[C@@H](C)Oc1ccc2[nH]nc(-c3ccc(N4CC5(CCOC5)C4)nc3)c2c1` [Example 206, (R)-2-(5-(5-(1-(3,5-dimethylpyridazin-4-yl)ethoxy)-1H-indazol-3-yl)pyridin-2-yl)-6-oxa-2-azaspiro[3.4]octane], the Kd in assay [1], in assay [2], in assay [3], in assay [4] and in assay [5] was 1 to 20 nM each time.

Take `COc1cc2[nH]nc(-c3ccc(N4CC5(C4)CN(S(C)(=O)=O)C5)nc3)c2cc1O[C@H](C)c1c(Cl)cnc(C)c1Cl` [Example 207, 5-[(1R)-1-(3,5-dichloro-2-methyl-4-pyridyl)ethoxy]-6-methoxy-3-[6-(2-methylsulfonyl-2,6-diazaspiro[3.3]heptan-6-yl)-3-pyridyl]-1H-indazole]: the Kd in assay [1], in assay [2], in assay [3], in assay [4] and in assay [5] was 1 to 20 nM in each case.

For `COc1cc2[nH]nc(-c3ccc(N4CC(O)C4)nc3)c2cc1O[C@H](C)c1c(Cl)cnc(C)c1Cl` [Example 208, 1-[5-[5-[(1R)-1-(3,5-dichloro-2-methyl-4-pyridyl)ethoxy]-6-methoxy-1H-indazol-3-yl]-2-pyridyl]azetidin-3-ol], the Kd in assay [1] is 20 to 100 nM; in assay [2], 1 to 20 nM; in assay [3], 1 to 20 nM; in assay [4], 1 to 20 nM; in assay [5], 1 to 20 nM.

Regarding `COC1(C)CN(c2ccc(-c3n[nH]c4ccc(O[C@H](C)c5c(Cl)cnc(C)c5Cl)cc34)cn2)C1` [Example 210, 5-[(1R)-1-(3,5-dichloro-2-methyl-4-pyridyl)ethoxy]-3-[6-(3-methoxy-3-methyl-azetidin-1-yl)-3-pyridyl]-1H-indazole], the Kd is 20 to 100 nM in assay [1]; 1 to 20 nM in assay [2]; 1 to 20 nM in assay [3]; 1 to 20 nM in assay [4]; 1 to 20 nM in assay [5].

As to `COc1cc2[nH]nc(-c3ccc(N4CC5(COC5)C4)nc3)c2cc1O[C@H](C)c1c(Cl)cnc(C)c1Cl` [Example 211, 6-[5-[5-[(1R)-1-(3,5-dichloro-2-methyl-4-pyridyl)ethoxy]-6-methoxy-1H-indazol-3-yl]-2-pyridyl]-2-oxa-6-azaspiro[3.3]heptane], the Kd in assay [1], in assay [2], in assay [3], in assay [4] and in assay [5] was 1 to 20 nM in each case.

For the compound `Cc1ncc(Cl)c([C@@H](C)Oc2ccc3[nH]nc(-c4ccc(N5CC6(CCC6)C5)nc4)c3c2)c1Cl` [Example 212, 3-[6-(2-azaspiro[3.3]-heptan-2-yl)-3-pyridyl]-5-[(1R)-1-(3,5-dichloro-2-methyl-4-pyridyl)ethoxy]-1H-indazole], the Kd in assay [1] is greater than 300 nM; in assay [2], 100 to 300 nM; in assay [3], 20 to 100 nM; in assay [4], 1 to 20 nM; in assay [5], 100 to 300 nM.

`COc1cc2[nH]nc(-c3cnc(N4CC5CC(C4)N5CC(C)(C)O)c(C)c3)c2cc1O[C@H](C)c1c(C)cnnc1C` [Example 214, 1-(3-(5-(5-((R)-1-(3,5-dimethylpyridazin-4-yl)ethoxy)-6-methoxy-1H-indazol-3-yl)-3-methylpyridin-2-yl)-3,6-diazabicyclo[3.1.1]heptan-6-yl)-2-methylpropan-2-ol]: the Kd in assay [1], in assay [2], in assay [3], in assay [4] and in assay [5] was 1 to 20 nM each time.

Take `Cc1ncc(Cl)c([C@@H](C)Oc2ccc3[nH]nc(-c4ccc(N5CC6(CCOC6)C5)nc4)c3c2)c1Cl` [Example 216, 2-[5-[5-[(1R)-1-(3,5-dichloro-2-methyl-4-pyridyl)ethoxy]-1H-indazol-3-yl]-2-pyridyl]-6-oxa-2-azaspiro[3.4]octane]: the Kd in assay [1] is 20 to 100 nM; in assay [2], 1 to 20 nM; in assay [3] it was 1 to 20 nM; in assay [4], 1 to 20 nM; in assay [5], 1 to 20 nM.

Turning to `Cc1cc(-c2n[nH]c3ccc(O[C@H](C)c4c(Cl)cnc(C)c4Cl)cc23)cnc1N1CC2(CCOC2)C1` [Example 217, 2-[5-[5-[(1R)-1-(3,5-dichloro-2-methyl-4-pyridyl)ethoxy]-1H-indazol-3-yl]-3-methyl-2-pyridyl]-6-oxa-2-azaspiro[3.4]octane], the Kd in assay [1] lay in the range of 100 to 300 nM; in assay [2] it was 20 to 100 nM; in assay [3], 1 to 20 nM; in assay [4], 1 to 20 nM; in assay [5] it was 1 to 20 nM.

For `COc1cc2[nH]nc(-c3cnc(N4CC5(COC5)C4)c(C#N)c3)c2cc1O[C@H](C)c1c(C)cnnc1C` [Example 218, (R)-5-(5-(1-(3,5-dimethylpyridazin-4-yl)ethoxy)-6-methoxy-1H-indazol-3-yl)-2-(2-oxa-6-azaspiro[3.3]heptan-6-yl)nicotinonitrile], the Kd lay in the range of 20 to 100 nM in assay [1]; 20 to 100 nM in assay [2]; 20 to 100 nM in assay [3]; 1 to 20 nM in assay [4]; 1 to 20 nM in assay [5].

As for `COc1cc2[nH]nc(-c3cnc(N4CC5(COC5)C4)c(C)c3)c2cc1O[C@H](C)c1c(C)cnnc1C` [Example 219, (R)-6-(5-(5-(1-(3,5-dimethylpyridazin-4-yl)ethoxy)-6-methoxy-1H-indazol-3-yl)-3-methylpyridin-2-yl)-2-oxa-6-azaspiro[3.3]heptane], the Kd in assay [1] lay within 20 to 100 nM; in assay [2], 1 to 20 nM; in assay [3], 1 to 20 nM; in assay [4] it was 1 to 20 nM; in assay [5] it was 1 to 20 nM.

With `COc1cc2[nH]nc(-c3ccc(N4CCCC4)nc3)c2cc1O[C@H](C)c1c(Cl)cnc(C)c1Cl` [Example 220, 5-[(1R)-1-(3,5-dichloro-2-methyl-4-pyridyl)ethoxy]-6-methoxy-3-(6-pyrrolidin-1-yl-3-pyridyl)-1H-indazole], the Kd in assay [1] lay within 20 to 100 nM; in assay [2], 20 to 100 nM; in assay [3], 1 to 20 nM; in assay [4], 1 to 20 nM; in assay [5], 1 to 20 nM.

Take `Cc1ncc(Cl)c([C@@H](C)Oc2ccc3[nH]nc(-c4ccc(N5CC(C)(O)C5)nc4)c3c2)c1Cl` [Example 222, 1-[5-[5-[(1R)-1-(3,5-dichloro-2-methyl-4-pyridyl)ethoxy]-1H-indazol-3-yl]-2-pyridyl]-3-methyl-azetidin-3-ol]: the Kd in assay [1] was 20 to 100 nM; in assay [2], 20 to 100 nM; in assay [3], 1 to 20 nM; in assay [4] it was 1 to 20 nM; in assay [5] it was 1 to 20 nM.

Consider `C[C@@H](Oc1ccc2[nH]nc(-c3ccc(N4CC5(CN(CC(F)(F)F)C5)C4)nc3)c2c1)c1c(Cl)cncc1Cl` [Example 224, (R)-5-(1-(3,5-dichloropyridin-4-yl)ethoxy)-3-(6-(6-(2,2,2-trifluoroethyl)-2,6-diazaspiro[3.3]heptan-2-yl)pyridin-3-yl)-1H-indazole], for which the Kd fell in the range of 1 to 20 nM in assay [1]; 20 to 100 nM in assay [2]; 1 to 20 nM in assay [3]; 1 to 20 nM in assay [4]; 1 to 20 nM in assay [5].

For `Cc1ncc(Cl)c([C@@H](C)Oc2ccc3[nH]nc(-c4ccc(N5CCN6C(=O)CCC6C5)nc4)c3c2)c1Cl` (stereo partly drawn) [Example 225, 2-[5-[5-[(1R)-1-(3,5-dichloro-2-methyl-4-pyridyl)ethoxy]-1H-indazol-3-yl]-2-pyridyl]-1,3,4,7,8,8a-hexahydropyrrolo[1,2-a]pyrazin-6-one], the Kd fell in the range of 20 to 100 nM in assay [1]; 1 to 20 nM in assay [2]; 1 to 20 nM in assay [3]; 1 to 20 nM in assay [4]; 1 to 20 nM in assay [5].

On to `Cc1ncc(Cl)c([C@@H](C)Oc2ccc3[nH]nc(-c4ccc(N5CC6(CCCO6)C5)nc4)c3c2)c1Cl` [Example 226, 2-[5-[5-[(1R)-1-(3,5-dichloro-2-methyl-4-pyridyl)ethoxy]-1H-indazol-3-yl]-2-pyridyl]-5-oxa-2-azaspiro[3.4]octane], for which the Kd in assay [1] is 20 to 100 nM; in assay [2], 20 to 100 nM; in assay [3], 1 to 20 nM; in assay [4], 1 to 20 nM; in assay [5] it was 20 to 100 nM.

Consider `Cc1ncc(Cl)c([C@@H](C)Oc2ccc3[nH]nc(-c4ccc(N5CC6(CC(O)C6)C5)nc4)c3c2)c1Cl` [Example 227, 2-[5-[5-[(1R)-1-(3,5-dichloro-2-methyl-4-pyridyl)ethoxy]-1H-indazol-3-yl]-2-pyridyl]-2-azaspiro[3.3]heptan-6-ol], for which the Kd is 20 to 100 nM in assay [1]; 1 to 20 nM in assay [2]; 1 to 20 nM in assay [3]; 1 to 20 nM in assay [4]; 1 to 20 nM in assay [5].
